From patent US20250228835A1, “PYRIDINYLOXYPYRIDINES AND RELATED COMPOUNDS AND THEIR USE IN TREATING MEDICAL CONDITIONS” (Rectify Pharmaceuticals, Inc., priority 2024, published 2025)

target: T1, ABCC6 WT (Homo sapiens, UniProt O95255); assay: ABCC6 WT assay: HiBit protein expression; assay type: cell-based; details: HEK-293 cells transiently expressing HiBit-tagged ABCC6 WT; 24 h treatment; top concentration 20 μM; read-out: ABCC6 WT EC50, Emax
T1 construct: expressed in transfected cells; host or cells: HEK-293 (transient, Lipofectamine 2000)
Excerpt: To assess activity against ABCC6, compounds were screened in an assay measuring protein expression, using cells transfected with cDNA encoding HiBit-tagged ABCC6 wild-type.
Described here is an assay for measuring the expression of the wild type of human ABCC6 (henceforth referred to as ABCC6 WT) and the use of this assay to measure the efficacy of compounds to increase the expression of ABCC6 WT. The assay was designed to characterize the efficacy and potency of compounds to increase the expression of ABCC6 WT by calculating an Emax and EC50 value. HEK-293 cells transiently expressing ABCC6 WT (HEK-293/ACC6 WT) were used for this assay and were cultured at 37° C. (5% CO2, humidified) in Dulbecco's Modified Eagle Medium (DMEM, Gibco product #11965-092) supplemented with 10% fetal bovine serum. For the assay, HEK-293 cells were transfected with […]/10 cm plate of cDNA encoding HiBit-tagged ABCC6 wild-type using Lipofectamine 2000 (Thermo Fisher, product #11668019). Twenty-four hours after transfection, the HEK-293/ACC6 WT cells were seeded in white/opaque 384-well plates (PerkinElmer, cat. No. 6007688) at 10,000 cells/well in 20 μl growth medium and allowed to settle for 4 hours at 37° C. (5% CO2, humidified). Compound serial dilutions are prepared in growth medium as ten times (10×) the final concentration and using a dilution factor of 2. After the four-hour incubation period, 2.2 μL of the 10× dilutions are transferred to the assay plate.
Dose response curves include ten doses with the top final concentration at 20 μM in 0.15% DMSO. Liquid handling is performed with an Integra mini96-tip head (INTEGRA). After addition of compound treatment, cells are incubated for 24 hours at 37° C. (5% CO2, humidified). After the 24-hour treatment, plates are allowed to equilibrate for 15 minutes at room temperature. Using Integra mini-96, 20 μl of HiBit lytic assay reagent (Promega, product #N3040), which is prepared according to manufacturer's instructions, is added to each well. The plates are rotated at room temperature for 10 minutes and luminescent signal is acquired using an EnVision Multimode Plate Reader (PerkinElmer).
Results are presented below in Table 4 for ABCC6 WT.

T1 sequence (O95255 whole entry): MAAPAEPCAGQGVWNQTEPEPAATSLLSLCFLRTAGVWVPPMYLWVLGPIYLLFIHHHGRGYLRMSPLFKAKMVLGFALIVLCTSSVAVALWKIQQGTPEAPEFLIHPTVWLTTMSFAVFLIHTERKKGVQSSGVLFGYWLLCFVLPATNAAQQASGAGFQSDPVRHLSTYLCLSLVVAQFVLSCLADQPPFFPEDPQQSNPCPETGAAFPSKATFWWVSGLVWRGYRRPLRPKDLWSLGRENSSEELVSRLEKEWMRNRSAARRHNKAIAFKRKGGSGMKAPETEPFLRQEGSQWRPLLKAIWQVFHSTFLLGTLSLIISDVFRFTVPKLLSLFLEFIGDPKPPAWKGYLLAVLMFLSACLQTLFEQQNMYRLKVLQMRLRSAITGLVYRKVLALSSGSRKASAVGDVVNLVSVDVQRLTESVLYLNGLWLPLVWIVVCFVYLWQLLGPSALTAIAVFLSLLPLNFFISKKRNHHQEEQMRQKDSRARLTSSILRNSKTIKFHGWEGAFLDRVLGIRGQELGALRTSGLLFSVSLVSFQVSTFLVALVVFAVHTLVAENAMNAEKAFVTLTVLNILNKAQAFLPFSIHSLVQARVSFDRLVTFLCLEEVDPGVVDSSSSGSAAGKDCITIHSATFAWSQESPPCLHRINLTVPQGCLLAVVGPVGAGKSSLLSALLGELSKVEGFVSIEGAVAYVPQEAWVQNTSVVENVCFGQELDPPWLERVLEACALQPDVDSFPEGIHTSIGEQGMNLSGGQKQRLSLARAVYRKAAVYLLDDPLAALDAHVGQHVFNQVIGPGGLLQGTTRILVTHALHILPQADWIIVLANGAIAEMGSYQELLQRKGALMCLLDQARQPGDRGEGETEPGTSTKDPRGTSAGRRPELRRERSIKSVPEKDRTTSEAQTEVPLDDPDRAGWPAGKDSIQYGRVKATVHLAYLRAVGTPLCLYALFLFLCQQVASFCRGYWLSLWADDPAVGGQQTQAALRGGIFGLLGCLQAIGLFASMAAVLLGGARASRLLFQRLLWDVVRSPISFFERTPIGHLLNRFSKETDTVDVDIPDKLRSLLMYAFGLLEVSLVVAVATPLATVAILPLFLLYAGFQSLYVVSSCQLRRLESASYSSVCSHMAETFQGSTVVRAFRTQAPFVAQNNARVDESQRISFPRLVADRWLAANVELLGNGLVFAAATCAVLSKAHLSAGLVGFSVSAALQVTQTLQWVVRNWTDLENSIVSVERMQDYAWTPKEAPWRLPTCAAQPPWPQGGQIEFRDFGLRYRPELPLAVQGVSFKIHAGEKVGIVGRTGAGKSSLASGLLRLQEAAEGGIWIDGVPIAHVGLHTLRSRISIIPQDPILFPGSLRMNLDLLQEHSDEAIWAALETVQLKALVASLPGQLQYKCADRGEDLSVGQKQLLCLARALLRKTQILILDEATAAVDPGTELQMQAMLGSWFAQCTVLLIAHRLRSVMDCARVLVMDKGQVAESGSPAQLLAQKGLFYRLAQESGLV

SMILES | EC50 [nM]
Cc1cc(C)c(Oc2nc(-n3cc(C)cn3)ccc2NS(C)(=O)=O)c(C)c1 [Compound I-11] | 1000 to 10000
Cc1cc(C)c(Oc2nc(-n3cnc(C)c3)ccc2NS(C)(=O)=O)c(C)c1 [Compound I-12] | < 1000
Cc1cc(C)c(Oc2nc(-c3cnn(C)c3C)ccc2NS(C)(=O)=O)c(C)c1 [Compound I-13] | < 1000
Cc1cc(C)c(Oc2nc(-c3cnn(C)c3)ccc2NS(C)(=O)=O)c(C)c1 [Compound I-14] | 1000 to 10000
Cc1cc(C)c(Oc2nc(N3CCN(C(=O)C4(C)CC4)CC3)ccc2NS(C)(=O)=O)c(C)c1 [Compound I-15] | 1000 to 10000
COC(=O)N1CCN(c2ccc(NS(C)(=O)=O)c(Oc3c(C)cc(C)cc3C)n2)CC1 [Compound I-16] | 1000 to 10000
CC(=O)N1CCN(c2ccc(NS(C)(=O)=O)c(Oc3c(C)cc(C)cc3C)n2)CC1 [Compound I-17] | 1000 to 10000
Cc1nc(Oc2nc(-c3cncc(C#N)c3)ccc2NS(C)(=O)=O)c(C)s1 [Compound I-107] | < 1000
Cc1cc(Oc2nc(-c3cncc(C#N)c3)ccc2NS(C)(=O)=O)nn1C [Compound I-113] | 1000 to 10000
Cc1nn(C)c(C)c1Oc1nc(-c2cncc(C#N)c2)ccc1NS(C)(=O)=O [Compound I-115] | < 1000
Cc1cc(C)c(Oc2nc(-c3cncc(S(C)(=N)=O)c3)ccc2NS(C)(=O)=O)c(C)n1 (stereo not drawn) [Compound I-116] | ≥ 25000
Cc1nc(C2CC2)c(Cl)cc1Oc1nc(-c2cncc(C#N)c2)ccc1NS(C)(=O)=O [Compound I-120] | < 1000
Cc1cc(Oc2nc(-c3cncc(C#N)c3)ccc2NS(C)(=O)=O)c(C)nc1C1CC1 [Compound I-127] | < 1000
Cc1cc(OC(F)(F)F)nc(C)c1Oc1nc(-c2cncc(C#N)c2)ccc1NS(C)(=O)=O [Compound I-131] | < 1000
Cc1cc(OC2CC2)nc(C)c1Oc1nc(-c2cncc(C#N)c2)ccc1NS(C)(=O)=O [Compound I-132] | < 1000
Cc1nc(C)c(Oc2nc(-c3cncc(C#N)c3)ccc2NS(C)(=O)=O)c(C2CC2)n1 [Compound I-165] | < 1000
Cc1cc(C)c(Oc2nc(-c3cncc(C#N)c3)ccc2N(C)S(C)(=O)=O)c(C)n1 [Compound I-166] | 1000 to 10000
CNS(=O)(=O)c1ccc(-c2cncc(C#N)c2)nc1Oc1c(C)nc(C(F)(F)F)nc1C [Compound I-167] | 1000 to 10000
CNS(=O)(=O)c1ccc(-c2cncc(C#N)c2)nc1Oc1c(C)cc(C(F)(F)F)nc1C [Compound I-168] | 1000 to 10000
Cc1nc(N2CC(S(C)(=O)=O)C2)nc(C)c1Oc1nc(-c2cncc(C#N)c2)ccc1NS(C)(=O)=O [Compound I-169] | 1000 to 10000
Cc1nc(N2CC(F)(F)C2)nc(C)c1Oc1nc(-c2cncc(C#N)c2)ccc1NS(C)(=O)=O [Compound I-170] | < 1000
Cc1cc(C2CC2)c(Oc2nc(-c3cncc(C#N)c3)ccc2NS(C)(=O)=O)c(C)n1 [Compound I-171] | < 1000
Cc1cc(C)c(Oc2nc(-c3cncc(C#N)c3)ccc2NS(=O)(=O)C2(C)CC2)c(C)n1 [Compound I-172] | 1000 to 10000
Cc1nc(C(F)F)nc(C)c1Oc1nc(-c2cncc(C#N)c2)ccc1NS(C)(=O)=O [Compound I-173] | < 1000
Cc1nc(C2COC2)nc(C)c1Oc1nc(-c2cncc(C#N)c2)ccc1NS(C)(=O)=O [Compound I-174] | < 1000
Cc1nc(C(F)F)nc(C)c1Oc1nc(-c2cncc(Cl)c2)ccc1NS(C)(=O)=O [Compound I-175] | < 1000
Cc1cc(C)c(Oc2nc(-c3cncc(C#N)c3)ccc2NS(C)(=O)=O)c(OC2CC2)n1 [Compound I-176] | < 1000
Cc1cc(N2CCC2)nc(C)c1Oc1nc(-c2cncc(C#N)c2)ccc1NS(C)(=O)=O [Compound I-177] | < 1000
Cc1nc(OC2CC2)c(C(F)(F)F)cc1Oc1nc(-c2cncc(C#N)c2)ccc1NS(C)(=O)=O [Compound I-178] | < 1000
Cc1nc(C2CC2)c(C(F)F)cc1Oc1nc(-c2cncc(C#N)c2)ccc1NS(C)(=O)=O [Compound I-179] | < 1000
